From US12522827B2 (priority 2021, dated 2026)
Read-outs that look alike come from different tables or passages of the source.

Experiments:
[1] = test system: A/WSN/33 (H1N1) virus with NA H274Y resistance mutation; format: cell-based, Influenza A/WSN/33 (H1N1)
PR8 = test: microbe, parasite or virus in culture; format: cell-based, Influenza A/PR/8/34 (PR8) H1N1 virus

Compound	potency and efficacy [1]	IC50 (PR8; read-out: IC50 after serial passages) [nM]	IC50 (PR8; read-out: IC50 at start of passaging) [nM]	IC50 [1] [nM]	increase of IC50 (PR8) [fold]	IC50 (PR8; Influenza A virus, PR8, read-out: IC50 after serial passages) [nM]	IC50 (PR8; Influenza A virus, PR8, read-out: starting IC50) [nM]
TACTtactgacaGCC [LNA9]	picomolar activity	0.016	0.018	–	–	–	–
CCOC(=O)C1=C[C@@H](OC(CC)CC)[C@H](NC(C)=O)[C@@H](N)C1 [Oseltamivir]	–	–	–	53000	1000	50000	41
